Measured values from US20200245616A1, “A Disinfectant Composition with Extended Antimicrobial Effects” (Siamons International Inc., priority 2017, published 2020).

Experiments:
Format in all cases: cell-based
[1] = tested on: Salmonella choleraesuis ATCC 10708; assay: AOAC Official Method 961.02 Germicidal Spray Method, bacteria on glass carriers; conditions: 10 min contact
Protocol: All experiments were conducted according to the protocol outlined in AOAC Official Method 961.02 (Germicidal Spray Method), which is a carrier-based method used to evaluate disinfection efficacy of aerosol/pump-based spray products and liquid products for registration with regulatory agencies such as the U.S. EPA and Health Canada.
(§1) In this method, a series of glass slides (“carriers”) were inoculated with a representative test organism and the carriers were dried under ambient conditions. The dried organisms on the surface of the carrier were then sequentially treated with the composition of the present disclosure in the form of a spray product and were exposed for a pre-determined exposure time. After exposure, the carriers were sequentially transferred to a liquid subculture medium specifically selected to neutralize the composition of the present disclosure and to recover any surviving test organism. The carriers were incubated and visually examined for the presence or absence of growth. […] Required organisms for a disinfection claim include but are not limited to Staphylococcus aureus, Salmonella choleraesuis and Pseudomonas aeruginosa.
Method Adapted to the Preparation of Bacteria Cultures from −80° C. Freshly Recovered Stock. […]

[2] = tested on: Trichophyton mentagrophytes ATCC 9533; assay: AOAC Official Method 961.02 Germicidal Spray Method, fungal conidia on glass carriers; conditions: 10 min contact
Description: as §1
(§2) The conidiospore suspension was macerated in a tissue grinder. The suspension was filtered through sterile cotton to remove the hyphae and hyphal fragments.
(§3) Vortex-mixed the inoculum periodically during inoculation of the carriers. • Immediately spread the inoculum uniformly over the majority of the carrier surface using a sterile loop. […] High volume screening studies were conducted in some cases where only 4 organism-inoculated carriers were treated at specified concentrations of CTAB. Once all of the carriers had been inoculated, the carriers were placed in an incubator at 37° C. for 40 minutes until completely dry.
(§4) • After drying, each carrier was sprayed with the respective disinfection formulae 10 times in 10 seconds at a distance of 30 cm. • Timed the treatment interval. Ten (10) minutes after each carrier had been exposed to the disinfectant, the excess liquid was removed and the carriers were transferred in a sequentially timed fashion into the culture tubes containing 20 ml neutralization broth (Letheen Broth with 0.07% Lecithin /0.5% Tween 80) to neutralize the disinfectant. • After the carriers were deposited in the respective culture tubes, the tubes were recapped and the cultures were thoroughly resuspended. • Incubated all neutralization tubes at 28 ±1° C. for 14 days. • After 14 days, the cultures within the tubes were examined for growth. The percentage of the treated carriers showing growth was recorded.

[3] = tested on: Aspergillus niger ATCC 6275; assay: as above; conditions: 10 min contact
Description: as §1, §2, §3, §4

[4] = tested on: Penicillium variable ATCC 32333; assay: as above; conditions: 10 min contact
Description: as §1, §2, §3, §4

[5] = tested on: Pseudomonas aeruginosa ATCC 15442; assay: AOAC Official Method 961.02 Germicidal Spray Method, bacteria on glass carriers; conditions: for Pseudomonas aeruginosa Growth Rate: 10 min contact
Description: as §1
(§5) Method Adapted to the Preparation of Bacteria Cultures from −80° C. Freshly Recovered Stock. […] Added 10 μL of the thawed stock to a tube containing 10 mL synthetic broth and then vortexed to mix. Discarded the rest of cryovial stock. • Incubated the tube at 36 ±1° C. for 24 hours (h). Briefly vortexed the 24 h culture prior to transfer. For this final subculture step, inoculated two 20×150 mm tubes containing 10 mL synthetic broth with […] of the 24 h synthetic broth culture. • Incubated 48 h at 36±1° C. Using a Vortex-style mixer, mixed synthetic broth test cultures 3-4 seconds and let stand 10 minutes at room temperature before continuing. Removed the upper portion of each culture, leaving behind any debris or clumps, and transferred to a sterile tube. Titrated the culture by plating on synthetic agar plates, and diluted to 5×10^8 Colony Forming Units (CFU) per mL.
(§6) High volume screening studies were conducted in some cases where only 4 organism-inoculated carriers were treated at specified concentrations of CTAB. Vortex-mixed the inoculum periodically during inoculation of the carriers. • Immediately spread the inoculum uniformly over the majority of the carrier surface using a sterile loop. […] Covered dish immediately and repeated operation until 64 carriers had been prepared for the test. Once all of the carriers had been inoculated, placed in incubator at 37° C. for 40 minutes until dry.
(§7) • After the test organisms were dried on the surface of the carrier, each carrier was sprayed with the respective disinfection formulae 10 times in 10 seconds at a distance of 30 cm. • Treatment interval was timed. Ten (10) minutes after each carrier had been sprayed by the disinfectant, the excess liquid was removed and the carriers were transferred in a sequentially timed fashion into the culture tubes containing 20 ml neutralizer (Letheen Broth with 0.07% Lecithin/0.5% Tween 80/0.1% Sodium Thiosulfate) to neutralize the disinfectant. […] The percentage of the treated carriers showing growth after 48 hours was recorded.

[6] = tested on: Staphylococcus aureus ATCC 6538; assay: as above; conditions: 10 min contact
Description: as §1, §5, §6, §7

CCCCCCCCCCCCCCCC[N+](C)(C)C.[Br-] [CTAB, cetyltrimethylammonium bromide]
Salmonella choleraesuis Growth Rate ([1]; CTAB 0.0100% in water (no CMC)): 100% | Salmonella choleraesuis Growth Rate ([1]; CTAB 0.1000% in water (no CMC)): 0% | Trichophyton mentagrophytes Growth Rate ([2]; CTAB 0.0010% in water (no CMC)): 0% | Trichophyton mentagrophytes Growth Rate ([2]; CTAB 0.0100% in water (no CMC)): 0% | Trichophyton mentagrophytes Growth Rate ([2]; CTAB 0.0500% in water (no CMC)): 0% | Aspergillus niger Growth Rate ([3]; CTAB 0.0010% in water (no CMC)): 100% | Aspergillus niger Growth Rate ([3]; CTAB 0.0100% in water (no CMC)): 100% | Aspergillus niger Growth Rate ([3]; CTAB 0.0500% in water (no CMC)): 100% | Aspergillus niger Growth Rate ([3]; CTAB 0.1000% in water (no CMC)): 100% | Penicillium variable Growth Rate ([4]; CTAB 0.0010% in water (no CMC)): 100% | Penicillium variable Growth Rate ([4]; CTAB 0.0100% in water (no CMC)): 0% | Penicillium variable Growth Rate ([4]; CTAB 0.0500% in water (no CMC)): 0% | Penicillium variable Growth Rate ([4]; CTAB 0.1000% in water (no CMC)): 0% | Pseudomonas aeruginosa Growth Rate ([5]; CTAB 0.0010% in water (no CMC)): 100% | Pseudomonas aeruginosa Growth Rate ([5]; CTAB 0.0100% in water (no CMC)): 100% | Pseudomonas aeruginosa Growth Rate ([5]; CTAB 0.0500% in water (no CMC)): 100% | efficacy against Pseudomonas ([5]; CTAB on its own in water, 0.05%): ineffective | Staphylococcus aureus Growth Rate ([6]; CTAB 0.0010% in water (no CMC)): 100% | Staphylococcus aureus Growth Rate ([6]; CTAB 0.0100% in water (no CMC)): 100% | Staphylococcus aureus Growth Rate ([6]; CTAB 0.0500% in water (no CMC)): 40% | Staphylococcus aureus Growth Rate ([6]; CTAB 0.1000% in water (no CMC)): 40%
